18 compounds from patent US9096593B2, “Compounds and methods for kinase modulation, and indications therefor” (Plexxikon Inc., priority 2009, dated 2015) can be followed below.

In one assay the target is Fms kinase (Homo sapiens (Human), UniProt P07333). Description: Fms kinase biochemical activity assay (AlphaScreen, biotin-(E4Y)10 phosphorylation). The essentials:
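Recombinant human Fms phosphorylating 30 nM biotin-(E4Y)10 with 100 μM ATP (1 ng/well enzyme) in Hepes pH 7.5 buffer with Mg2+/Mn2+, 5% DMSO, 20 min at 30 °C. Phosphotyrosine detected by AlphaScreen streptavidin donor/PY20 acceptor beads; IC50 from signal versus compound concentration.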
For orientation: Alpha assays give light when donor and acceptor beads are brought close together.

Another assay concerns the target BCR-KIT/BaF3 cells (Homo sapiens, UniProt P10721). Briefly: BCR-KIT/BaF3 cell proliferation assay (ATPlite). To be noted: read-out: BCR/BaF3 (IC50 μM) Kit. Type of assay: cell-based. As for the experimental part:
Compounds are assessed in a variety of cell based assays. For example BCR-FMS/BaF3, BCR-KIT/BaF3, M-NFS-60, M-07e, and BAC1.2F5 cell proliferation assays are used to assess inhibitory activity of Fms or Kit and MV-4-11 cell proliferation assay is used to assess inhibitory activity in Flt-3. Reagent and assay conditions are as follows: • BCR-FMS/BaF3 and BCR-KIT/BaF3 cells: • Maintained in RPMI containing 10% FBS, 1% PenStrep, 1% NEAA, and 1% L-Glutamine, supplemented with 1 mg/mL G418 and 5% WEHI-CM (or recombinant murine IL-3). • Confluent cells are split 1:50 to 1:100 every 3-4 days. • M-NFS-60 cells (ATCC #CRL-1838): • Maintained in RPMI containing 10% FBS, 1% Hepes, 1% NaPyruvate, and 0.45% Glucose, supplemented with 62 ng/mL murine M-CSF. • Confluent cells are split 1:20 every 3-4 days. • M-07e cells (DSMZ #ACC 104): • Maintained in IMDM containing 10% FBS, supplemented with either 200 ng/mL human SCF or […] SCF (R&D Systems 255-SC). • Confluent cells are split 1:5 to 1:10 every 3-4 days. • BAC1.2F5 cells: • Maintained in Alpha-MEM containing 10% Newborn Calf Serum (Invitrogen #26010-074) supplemented with 36 ng/mL murine M-CSF. • Confluent cells are split 1:4 every 3-4 days. • MV-4-11 cells: • Maintained in Iscove's Modified Dulbecco's Medium containing 10% FBS. • Confluent cells are split 1:4 every 3-4 days. On day 1, cells are counted, then centrifuged in a conical tube for 5 minutes at 1000 rpm. The supernatant is removed and cells are re-suspended as follows: • BCR-FMS/BaF3 and BCR-KIT/BaF3: resuspend in growth media+1 mg/mL G418 (without WEHI/IL-3) to 2×10^5 cells/mL. • M-NFS-60: resuspend in growth media +62 ng/mL murine M-CSF to 5×10^5 cells/mL. • M-07e: resuspend in growth media +200 ng/mL human SCF to 5×10^5 cells/mL. • BAC1.2F5: resuspend in growth media +36 ng/mL murine M-CSF to 1.4×10^5 cells/mL. • MV-4-11: resuspend in growth media +10% FBS to 5×10^5 cells/mL. The cells are plated (50 μL) in each well of a 96-well dish (Corning 3610) and incubated at 37° C. in 5% CO2 overnight, cells plated to a final concentration of cells as follows: • BCR-FMS/BaF3 and BCR-KIT/BaF3: 10,000 cells per well. • M-NFS-60: 25,000 cells per well. • M-07e: 25,000 cells per well. • BAC1.2F5: 7,000 cells per well. • MV-4-11: 25,000 cells per well. On day 2, compound at a maximum concentration of 5 mM is serially diluted 1:3 for a total of 8 point titration with DMSO as a control. A 1 μL aliquot of each dilution point is added to 249 μL growth media and 50 μL is added to a well containing cells, providing 10 μM compound for the maximum concentration point. The cells are incubated for 3 days at 37° C. in 5% CO2. On day 5, ATPlite 1 step Luminescence Assay System (Perkin Elmer #6016739) is brought to room temperature along with the cell cultures. ATPlite is added to each well as follows: • BCR-FMS/BaF3 and BCR-KIT/BaF3: 25 μL per well. • M-NFS-60: 25 μL per well. • M-07c: 40 μL per well. • BAC1.2F5: 50 μL per well. • MV-4-11: 40 μL per well. The cells are incubated at room temperature for 10 minutes, then luminescence is read on Safire reader. The measured luminescence correlates directly with cell number, such that the reading as a function of compound concentration is used to determine the IC50 value.
Background: Cellular ATP, detected with luciferase, serves as a proxy for viable cell number.

Setting [1] is: read-out: Biochemical activity (IC50 μM) Fms.
Where [2] appears, read: 100 μM ATP, read-out: Biochemical (IC50 μM) Fms.

Read-outs that look alike come from different tables or passages of the source. Where only a bound is given, the exact number is not on record here.

Sequence of Fms kinase (P07333 20-972): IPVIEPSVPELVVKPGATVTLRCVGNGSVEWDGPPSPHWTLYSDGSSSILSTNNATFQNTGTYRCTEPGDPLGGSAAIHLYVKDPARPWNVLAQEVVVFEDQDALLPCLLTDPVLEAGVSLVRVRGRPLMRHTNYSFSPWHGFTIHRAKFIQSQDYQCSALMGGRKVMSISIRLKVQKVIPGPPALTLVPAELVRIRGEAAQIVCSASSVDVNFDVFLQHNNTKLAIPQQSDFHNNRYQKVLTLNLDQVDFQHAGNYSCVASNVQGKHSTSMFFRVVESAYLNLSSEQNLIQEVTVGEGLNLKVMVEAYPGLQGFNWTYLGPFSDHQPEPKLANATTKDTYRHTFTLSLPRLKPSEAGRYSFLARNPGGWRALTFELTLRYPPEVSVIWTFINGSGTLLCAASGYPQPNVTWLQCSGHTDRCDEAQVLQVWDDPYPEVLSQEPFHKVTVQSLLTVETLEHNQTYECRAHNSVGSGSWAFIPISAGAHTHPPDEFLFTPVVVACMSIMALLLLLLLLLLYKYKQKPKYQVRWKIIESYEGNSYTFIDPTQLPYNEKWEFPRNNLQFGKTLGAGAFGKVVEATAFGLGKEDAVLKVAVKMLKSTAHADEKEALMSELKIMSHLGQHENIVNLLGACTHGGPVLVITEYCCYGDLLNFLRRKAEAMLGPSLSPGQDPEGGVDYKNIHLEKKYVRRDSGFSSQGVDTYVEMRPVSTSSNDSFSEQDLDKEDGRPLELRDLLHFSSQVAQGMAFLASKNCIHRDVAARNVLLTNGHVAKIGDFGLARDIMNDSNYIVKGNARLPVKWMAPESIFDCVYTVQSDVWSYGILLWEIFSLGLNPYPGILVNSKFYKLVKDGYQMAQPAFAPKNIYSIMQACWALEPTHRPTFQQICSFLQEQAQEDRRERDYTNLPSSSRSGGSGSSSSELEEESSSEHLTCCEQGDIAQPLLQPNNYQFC
Sequence of BCR-KIT/BaF3 cells (P10721 26-976 limits assumed, change not shown): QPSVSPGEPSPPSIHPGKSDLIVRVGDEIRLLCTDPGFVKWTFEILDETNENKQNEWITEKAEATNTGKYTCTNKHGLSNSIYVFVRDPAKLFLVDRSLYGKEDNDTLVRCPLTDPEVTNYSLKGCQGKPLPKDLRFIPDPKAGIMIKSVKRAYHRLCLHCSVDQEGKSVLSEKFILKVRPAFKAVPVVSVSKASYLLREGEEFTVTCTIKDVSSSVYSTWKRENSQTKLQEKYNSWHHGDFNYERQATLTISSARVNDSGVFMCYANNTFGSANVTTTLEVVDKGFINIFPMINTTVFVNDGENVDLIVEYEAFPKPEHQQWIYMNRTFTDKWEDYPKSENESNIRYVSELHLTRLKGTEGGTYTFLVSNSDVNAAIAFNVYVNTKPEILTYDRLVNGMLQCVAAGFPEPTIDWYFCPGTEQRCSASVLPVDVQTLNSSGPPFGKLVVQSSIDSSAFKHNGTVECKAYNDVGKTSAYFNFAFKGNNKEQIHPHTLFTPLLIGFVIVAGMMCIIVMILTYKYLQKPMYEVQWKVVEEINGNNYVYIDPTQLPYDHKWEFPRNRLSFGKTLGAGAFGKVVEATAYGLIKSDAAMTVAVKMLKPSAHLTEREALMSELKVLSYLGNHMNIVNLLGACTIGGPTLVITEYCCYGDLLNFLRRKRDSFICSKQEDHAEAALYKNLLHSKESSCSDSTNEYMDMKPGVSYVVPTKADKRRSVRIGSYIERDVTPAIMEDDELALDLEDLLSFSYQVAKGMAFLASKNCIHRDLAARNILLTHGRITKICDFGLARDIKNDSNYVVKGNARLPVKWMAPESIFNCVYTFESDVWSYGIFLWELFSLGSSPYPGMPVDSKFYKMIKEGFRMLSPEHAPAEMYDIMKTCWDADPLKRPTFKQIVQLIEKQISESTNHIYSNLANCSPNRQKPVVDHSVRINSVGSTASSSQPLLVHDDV

Regarding `COc1ccc(CNc2ncc(Cc3c[nH]c4ncc(C)cc34)cc2C)cn1` [Compound P-1554, (6-Methoxy-pyridin-3-ylmethyl)-[3-methyl-5-(5-methyl-1H-pyrrolo[2,3-b]pyridin-3-ylmethyl)-pyridin-2-yl]-amine], the “Biochemical activity selectivity (Kit IC50/Fms IC50)” value on Fms kinase is given as less than 20. The IC50 was less than 0.1 µM at Fms kinase (setting [1]) and more than 0.1 µM at BCR-KIT/BaF3 cells.
For `COc1ccc(CNc2ncc(Cc3c[nH]c4ncc(C)cc34)cc2F)cn1` [Compound P-1562, [3-Fluoro-5-(5-methyl-1H-pyrrolo[2,3-b]pyridin-3-ylmethyl)-pyridin-2-yl]-(6-methoxy-pyridin-3-ylmethyl)-amine] the same measures were less than 20, less than 0.1 µM and more than 0.1 µM.
For `COc1ccc(CNc2ccc(Cc3c[nH]c4ncc(F)cc34)c(F)n2)cn1` [Compound P-1622, [6-Fluoro-5-(5-fluoro-1H-pyrrolo[2,3-b]pyridin-3-ylmethyl)-pyridin-2-yl]-(6-methoxy-pyridin-3-ylmethyl)-amine] the same measures were more than 20, less than 0.1 µM and more than 0.1 µM.
In the case of `COc1ncc(F)cc1CNc1ccc(Cc2c[nH]c3ncc(NC(C)=O)cc23)c(F)n1` [Compound P-1669, N-(3-{2-fluoro-6-[(5-fluoro-2-methoxy-pyridin-3-ylmethyl)-amino]-pyridin-3-ylmethyl}-1H-pyrrolo[2,3-b]pyridin-5-yl)-acetamide], the IC50 at BCR-KIT/BaF3 cells was more than 0.1 µM.
`CS(=O)(=O)Nc1cnc2[nH]cc(Cc3ccc(NCc4ccc(Cl)nc4)nc3F)c2c1` [Compound P-1679, N-(3-{6-[(6-Chloro-pyridin-3-ylmethyl)-amino]-2-fluoro-pyridin-3-ylmethyl}-1H-pyrrolo[2,3-b]pyridin-5-yl)-methanesulfonamide]: the “Biochemical activity selectivity (Kit IC50/Fms IC50)” value at Fms kinase is more than 20. In addition, the IC50 is less than 0.1 µM on Fms kinase (setting [1]) and more than 0.1 µM at BCR-KIT/BaF3 cells.
For `Fc1cncc(CNc2ccc(Cc3c[nH]c4ncc(Cl)cc34)c(F)n2)c1` [Compound P-2001, [5-(5-Chloro-1H-pyrrolo[2,3-b]pyridin-3-ylmethyl)-6-fluoro-pyridin-2-yl]-(5-fluoro-pyridin-3-ylmethyl)-amine] the same measures were more than 20, less than 0.1 µM and more than 0.1 µM.
Regarding `Clc1cnc2[nH]cc(Cc3ccc(NCc4ccc(Cl)nc4)nc3)c2c1` [Compound P-2003], the IC50 on Fms kinase (setting [2]), on Fms kinase (setting [1]) and on BCR-KIT/BaF3 cells was less than 0.1 µM each time. Besides, the “Biochemical activity selectivity (Kit IC50/Fms IC50)” value on Fms kinase is listed as less than 20.
For the compound `Fc1ccc(CNc2ccc(Cc3c[nH]c4ncc(Cl)cc34)cn2)cn1` [Compound P-2004, [5-(5-chloro-1H-pyrrolo[2,3-b]pyridin-3-ylmethyl)-pyridin-2-yl]-(6-fluoro-pyridin-3-ylmethyl)-amine], the IC50 on Fms kinase (setting [2]), on Fms kinase (setting [1]) and at BCR-KIT/BaF3 cells was less than 0.1 µM throughout. On Fms kinase, the “Biochemical activity selectivity (Kit IC50/Fms IC50)” value is less than 20.
`Fc1ccc(CNc2ncc(Cc3c[nH]c4ncc(Cl)cc34)cn2)cc1F` [Compound P-2008, [5-(5-Chloro-1H-pyrrolo[2,3-b]pyridin-3-ylmethyl)-pyrimidin-2-yl]-(3,4-difluoro-benzyl)-amine]: the “Biochemical activity selectivity (Kit IC50/Fms IC50)” value at Fms kinase is less than 20. In addition, the IC50 was less than 0.1 µM on Fms kinase (setting [1]) and more than 0.1 µM on BCR-KIT/BaF3 cells.
Turning to `Cc1cccc(CNc2ncc(Cc3c[nH]c4ncc(Cl)cc34)cn2)c1` [Compound P-2013, [5-(5-Chloro-1H-pyrrolo[2,3-b]pyridin-3-ylmethyl)-pyrimidin-2-yl]-(3-methyl-benzyl)-amine], at Fms kinase, the “Biochemical activity selectivity (Kit IC50/Fms IC50)” value is less than 20. In addition, the figures for the IC50 at Fms kinase (setting [1]) and at BCR-KIT/BaF3 cells were less than 0.1 µM and more than 0.1 µM, respectively.
As to `Cc1cnc2[nH]cc(Cc3ccc(NCc4ccc(C(F)(F)F)nc4)nc3)c2c1` [Compound P-2019, [5-(5-Methyl-1H-pyrrolo[2,3-b]pyridin-3-ylmethyl)-pyridin-2-yl]-(6-trifluoromethyl-pyridin-3-ylmethyl)-amine], the IC50 on Fms kinase (setting [2]), at Fms kinase (setting [1]) and at BCR-KIT/BaF3 cells was less than 0.1 µM throughout. In addition, the “Biochemical activity selectivity (Kit IC50/Fms IC50)” value at Fms kinase is reported as less than 20.
As for `COc1cnc2[nH]cc(Cc3ccc(NCc4cncc(F)c4)nc3F)c2c1` [Compound P-2028, [6-Fluoro-5-(5-methoxy-1H-pyrrolo[2,3-b]pyridin-3-ylmethyl)-pyridin-2-yl]-(5-fluoro-pyridin-3-ylmethyl)-amine], at Fms kinase, the “Biochemical activity selectivity (Kit IC50/Fms IC50)” value was more than 20. Besides, the IC50 at Fms kinase (setting [1]) is less than 0.1 µM; on BCR-KIT/BaF3 cells it was more than 0.1 µM.
For `COc1ccc(CNc2ccc(Cc3c[nH]c4ncc(C)cc34)c(F)n2)cn1` [Compound P-2029, [6-Fluoro-5-(5-methyl-1H-pyrrolo[2,3-b]pyridin-3-ylmethyl)-pyridin-2-yl]-(6-methoxy-pyridin-3-ylmethyl)-amine], the values for the IC50 at Fms kinase (setting [2]), on Fms kinase (setting [1]) and on BCR-KIT/BaF3 cells were less than 0.1 µM, less than 0.1 µM and more than 0.1 µM, respectively. The “Biochemical activity selectivity (Kit IC50/Fms IC50)” value on Fms kinase is listed as more than 20.
Consider `COc1cnc2[nH]cc(Cc3ccc(NCc4ccc(OC)nc4)nc3F)c2c1` [Compound P-2030, [6-Fluoro-5-(5-methoxy-1H-pyrrolo[2,3-b]pyridin-3-ylmethyl)-pyridin-2-yl]-(6-methoxy-pyridin-3-ylmethyl)-amine], for which the IC50 on Fms kinase (setting [2]) is less than 0.1 µM; at Fms kinase (setting [1]), less than 0.1 µM; at BCR-KIT/BaF3 cells it was more than 0.1 µM. In addition, the “Biochemical activity selectivity (Kit IC50/Fms IC50)” value on Fms kinase is given as less than 20.
`Cc1cnc2[nH]cc(Cc3ccc(NCc4ccc(C(F)(F)F)nc4)nc3F)c2c1` [Compound P-2031, [6-Fluoro-5-(5-methyl-1H-pyrrolo[2,3-b]pyridin-3-ylmethyl)-pyridin-2-yl]-(6-trifluoromethyl-pyridin-3-ylmethyl)-amine]: the values for the IC50 on Fms kinase (setting [2]), on Fms kinase (setting [1]) and on BCR-KIT/BaF3 cells were less than 0.1 µM, less than 0.1 µM and more than 0.1 µM, respectively. In addition, at Fms kinase, the “Biochemical activity selectivity (Kit IC50/Fms IC50)” value is listed as less than 20.
On to `COc1cnc2[nH]cc(Cc3ccc(NCc4ccccc4Cl)nc3F)c2c1` [Compound P-2034, (2-chloro-benzyl)-[6-fluoro-5-(5-methoxy-1H-pyrrolo[2,3-b]pyridin-3-ylmethyl)-pyridin-2-yl]-amine], for which the IC50 on Fms kinase (setting [2]) is less than 0.1 µM.
Turning to `Fc1nc(NCc2ccc(Cl)cn2)ccc1Cc1c[nH]c2ncccc12` [Compound P-2044, (5-Chloro-pyridin-2-ylmethyl)-[6-fluoro-5-(1H-pyrrolo[2,3-b]pyridin-3-ylmethyl)-pyridin-2-yl]-amine], the IC50 at Fms kinase (setting [2]) is less than 0.1 µM.
Take `Cc1cc(CNc2ccc(Cc3c[nH]c4ncc(Cl)cc34)c(F)n2)ccn1` [Compound P-2075, [5-(5-Chloro-1H-pyrrolo[2,3-b]pyridin-3-ylmethyl)-6-fluoro-pyridin-2-yl]-(2-methyl-pyridin-4-ylmethyl)-amine]: the “Biochemical activity selectivity (Kit IC50/Fms IC50)” value at Fms kinase is given as more than 20. The IC50 at Fms kinase (setting [1]) was less than 0.1 µM.
